One data set concerns HCV replicon Luc Neo ET. The experiment in a line: Luc Neo ET Replicon assay. The settings on record: Hepatitis C virus, 72 h, Table 3, titled RdRp enzyme assay results, EC50_Replicon LucneoET; 72 hours with compound, luciferase. Type of data set: cell-based, Hepatitis C virus. As to the method: Human Hepatoma Huh-7 cell line was maintained in DMEM/HAMF-12 supplemented with 10% SVF, 4 mM glutamine, […] Na pyruvate, 1% penistreptomycine. HCV replicon containing Huh-7 cell lines Huh-9.13 and Luc Neo ET (Reblikon) were maintained in DMEM supplemented with 10% SVF, 2 mM glutamine, and 1×NEAA, 100 U/ml penicillin, and 100 μg/ml streptomycine. Replicon cells were maintained in medium supplemented with 1 mg/ml G418 for replicon Huh-9.13 and 0.5 mg/ml for Luc Neo et replicon unless indicated otherwise. Huh-7 and HCV replicon cell lines were maintained at 37° C. and 5% CO2 in a humidified atmosphere. Cells were dissociated at sub confluence with trypsin EDTA 1×.
Replicon Luc Neo ET is a bicistronic expression constructs (Lohmann et al, 1999, Science 285, 110-113). In brief, the structural genes of the HCV genome were replaced by heterologous sequences; the gene encoding the neomycin phosphotransferase (NPT) and the internal ribosome entry site (IRES) of the encephalomyocarditis virus (EMCV). The bicistronic construct is therefore composed of the following elements: HCV-IRES nucleotides 1-389, the NPT gene, the EMCV-IRES directing translation of downstream HCV sequences from NS2 or NS3 up to the authentic 3′ end of the genome. HCV Polyprotein harbours the cell culture adaptive mutations E1202G, T1280I, K1846T. G418-resistance is only possible with cells containing high amounts of replicon.
Cells were dissociated the day before addition of compounds and seeded in 96 well-plates at a final concentration of 77 777.77 cells.ml^−1.well^−2 in 90 μl final volume of culture medium per well and were maintained at 37° C. and 5% CO2 in a humidified atmosphere for 24 hours. 10 μl of compounds to be tested were added 24 hours after seeding. Final concentration of DMSO was 1%. Cells were incubated in the presence of compounds for 72 hours after which expression of firefly luciferase reporter gene was quantified. Briefly, culture medium was removed and cells were lysed by addition of 100 μl of lysis buffer containing 125 mM Tris Phosphate ph 7.8, 10 mM EDTA, 5 mM DTT, 50% glycerol and 5% Triton. Plates were vortexed 10 min at 1300 rpm. Cell lysat was transferred in OpaqueWhite Assay 96 well Flat Bottom plates. 100 μl of luciferin solution 1× were added to each well. Luciferin solution contained 40 mM Tris Phosphate ph 7.8, 0.2 mM EDTA, 67 mM DTT, 2.14 mM MgCl2, 5.4 mM MgSO4, 4.7×10^−4 M luciferin, 5.3×10^−4 M ATP and 2.7×10^−4 M Acetyl co enzyme A. Luminescence was immediately measured with Berthold Microlumat Plus LB 96V luminometer with an integration of 0.5 sec Inhibition was calculated using the formula:
% inhibition=1−[(RLUsample−RLUbackground)/(RLUsignal−RLUbackground)]
In general terms: Replicon systems follow genome replication, usually without infectious particles.

A further data set deals with T1, HCV NS5B genotype 1b (Hepatitis C virus genotype 1b, UniProt Q9WMX2).
T1 construct: The protein was expressed with a 21 amino acid C-terminal deletion to remove transmembrane domain; expressed in transfected cells; host or cells: Huh-7
In words: 3D-SCREEN assay (NS5B 3D-Screen platform, luciferase reporter gene). It is filed as cell-based. Conditions: EC50_3DS_NS5B. The method in brief: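 Huh-7 cells transiently co-transfected with NS5BΔ21/Gal4-DBD, 3D-Sensor peptide I4/VP16 and firefly luciferase reporter. Compounds added 2 h after seeding, 1% DMSO final, 24 h incubation. Luciferase luminescence read; % inhibition relative to no-compound signal.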
On the technique in general: A reporter such as luciferase makes a cellular process visible.

[1] abbreviates: Table 1, 3D-SCREEN assay results, Huh-7 cells, 24 hours with compound, firefly luciferase reporter.
The mark [2] stands for this setting: Table 2, titled Replicon assay results.

Molecules are shown by their SMILES. pEC50: −log10 of the molar value. A value given as a limit tells only on which side of the number the result lay.

With `CC(=O)OC1=C(C(=O)c2ccc(C)cc2)C(c2ccc(OC(F)(F)F)cc2)N(c2ccc(C)nn2)C1=O` (stereo not drawn) [Example 76, Acetic acid 4-(4-methyl-benzoyl)-1-(6-methyl-pyridazin-3-yl)-2-oxo-5-(4-trifluoromethoxy-phenyl)-2,5-dihydro-1H-pyrrol-3-yl ester], the melting point lay in the range of 165 to 166.5 °C. The pEC50 in the data set on HCV replicon Luc Neo ET is over 5.00. Further, the pEC50 on HCV NS5B genotype 1b (setting [1]) was 6.22.

`Cc1ccc(N2C(=O)C(O)=C(C(=O)c3ccc(C(C)C)cc3)C2c2ccc(OC(F)(F)F)cc2)cn1` (stereo not drawn) [Example 77, 3-hydroxy-4-(4-isopropyl-benzoyl)-1-(6-methyl-pyridin-3-yl)-5-(4-trifluoromethoxy-phenyl)-1,5-dihydro-pyrrol-2-one] gave a melting point of 214 to 218 °C. Besides, the negative logarithm of the EC50 (pEC50) in the data set on HCV replicon Luc Neo ET was over 5.00. Also, at HCV NS5B genotype 1b (setting [2]), the pEC50 is over 6.00.

Molecule `Cc1ccc(N2C(=O)C(O)=C(C(=O)c3ccc(-c4ccccc4)cc3)C2c2ccc(OC(F)(F)F)cc2)nn1` (stereo not drawn) [Example 79, 4-(biphenyl-4-carbonyl)-3-hydroxy-1-(6-methyl-pyridazin-3-yl)-5-(4-trifluoromethoxy-phenyl)-1,5-dihydro-pyrrol-2-one] returned a melting point of 226 to 232 °C. The pEC50 with HCV replicon Luc Neo ET was over 5.00. In addition, at HCV NS5B genotype 1b (setting [1]), the pEC50 was 6.30.

`Cc1ccc(N2C(=O)C(O)=C(C(=O)c3ccc(N4CCOCC4)cc3)C2c2ccc(OC(F)(F)F)cc2)nn1` (stereo not drawn) [Example 80, 3-hydroxy-1-(6-methyl-pyridazin-3-yl)-4-(4-morpholin-4-yl-benzoyl)-5-(4-trifluoromethoxy-phenyl)-1,5-dihydro-pyrrol-2-one] displayed a melting point of 234 °C. Also, the negative-log EC50 (pEC50) in the data set on HCV replicon Luc Neo ET was over 5.00. Moreover, the pEC50 on HCV NS5B genotype 1b (setting [1]) was 5.70.

`Cc1ccc(N2C(=O)C(O)=C(C(=O)c3ccc(C(C)C)cc3)C2c2ccc(OC(F)F)cc2)nn1` (stereo not drawn) [Example 88, 5-(4-difluoromethoxy-phenyl)-3-hydroxy-4-(4-isopropyl-benzoyl)-1-(6-methyl-pyridazin-3-yl)-1,5-dihydro-pyrrol-2-one] registered a melting point of 263 to 265 °C. The negative logarithm of the EC50 (pEC50) in the data set on HCV replicon Luc Neo ET was over 6.00. On HCV NS5B genotype 1b (setting [2]), this molecule showed a negative-log EC50 (pEC50) of over 6.00.

Regarding `Cc1ccc(N2C(=O)C(O)=C(C(=O)c3ccc(C(C)C)cc3)C2c2ccc(OC(C)C)cc2)nn1` (stereo not drawn) [Example 89, 3-hydroxy-5-(4-isopropoxy-phenyl)-4-(4-isopropyl-benzoyl)-1-(6-methyl-pyridazin-3-yl)-1,5-dihydro-pyrrol-2-one], the melting point lay within 280 to 281 °C. For the same molecule, the pEC50 in the data set on HCV replicon Luc Neo ET was over 5.00. On HCV NS5B genotype 1b (setting [2]), this molecule had a pEC50 of over 5.00.

In turn, `Cc1ccc(N2C(=O)C(O)=C(C(=O)c3ccc(C(C)C)cc3)C2c2ccc(OC(C)(C)C)cc2)nn1` (stereo not drawn) [Example 90, 5-(4-tert-butoxyphenyl)-3-hydroxy-4-(4-isopropyl-benzoyl)-1-(6-methyl-pyridazin-3-yl)-1,5-dihydro-pyrrol-2-one] had a melting point of 276 to 277 °C. Also, the negative-log EC50 (pEC50) in the data set with HCV replicon Luc Neo ET is over 5.00. For the same molecule, the negative logarithm of the EC50 (pEC50) at HCV NS5B genotype 1b (setting [2]) was over 5.00.

In turn, `CCc1ccc(C(=O)C2=C(O)C(=O)N(c3ccc(C)nn3)C2c2ccc(OC(F)(F)F)cc2)cc1` (stereo not drawn) [Example 102, 4-(4-ethyl-benzoyl)-3-hydroxy-1-(6-methyl-pyridazin-3-yl)-5-(4-trifluoromethoxy-phenyl)-1,5-dihydro-pyrrol-2-one] had a melting point of 263 to 267 °C. The negative logarithm of the EC50 (pEC50) in the data set with HCV replicon Luc Neo ET was over 6.00. On HCV NS5B genotype 1b (setting [2]), this molecule showed a pEC50 of over 6.00.

On to `CCOc1ccc(C2C(C(=O)c3ccc(C(C)C)cc3)=C(O)C(=O)N2c2ccc(C)nn2)cc1` (stereo not drawn) [Example 104, 5-(4-ethoxy-phenyl)-3-hydroxy-4-(4-isopropyl-benzoyl)-1-(6-methyl-pyridazin-3-yl)-1,5-dihydro-pyrrol-2-one], for which the melting point was 279 °C. Also, the pEC50 in the data set on HCV replicon Luc Neo ET is over 6.00. The pEC50 at HCV NS5B genotype 1b (setting [2]) was over 6.00.

In turn, `CCc1ccc(C2C(C(=O)c3ccc(C(C)C)cc3)=C(O)C(=O)N2c2ccc(C)nn2)cc1` (stereo not drawn) [Example 105, 5-(4-ethyl-phenyl)-3-hydroxy-4-(4-isopropyl-benzoyl)-1-(6-methyl-pyridazin-3-yl)-1,5-dihydro-pyrrol-2-one] yielded a melting point of 282 to 284 °C. In addition, the pEC50 in the data set on HCV replicon Luc Neo ET is over 6.00. The molecule also had a pEC50 on HCV NS5B genotype 1b (setting [2]) of over 6.00.

`CC(C)c1ccc(C(=O)C2=C(O)C(=O)N(c3ccc(Sc4ccc([N+](=O)[O-])cc4)nn3)C2c2ccc(OC(F)(F)F)cc2)cc1` (stereo not drawn) [Example 119, 3-hydroxy-4-(4-isopropyl-benzoyl)-1-[6-(4-nitro-phenylsulfanyl)-pyridazin-3-yl]-5-(4-trifluoromethoxy-phenyl)-1,5-dihydro-pyrrol-2-one] returned a melting point of 194 to 209 °C. Besides, the negative logarithm of the EC50 (pEC50) in the data set on HCV replicon Luc Neo ET was over 5.00. The same molecule had a pEC50 on HCV NS5B genotype 1b (setting [2]) of over 6.00.

For the molecule `Cc1ccc(N2C(=O)C(O)=C(C(=O)c3ccc(C(C)C)cc3)C2c2ccc(OC3CC3)cc2)nn1` (stereo not drawn) [Example 120, 5-(4-cyclopropoxy-phenyl)-3-hydroxy-4-(4-isopropyl-benzoyl)-1-(6-methyl-pyridazin-3-yl)-1,5-dihydro-pyrrol-2-one], the melting point fell in the range of 285 to 288 °C. Also, in the data set on HCV replicon Luc Neo ET, the negative-log EC50 (pEC50) was over 6.00. Further, the negative-log EC50 (pEC50) on HCV NS5B genotype 1b (setting [2]) is over 6.00.

Molecule `Cc1ccc(N2C(=O)C(O)=C(C(=O)c3ccc(C(C)(C)C)cc3)C2c2ccc(OC(F)(F)F)cc2)nn1` (stereo not drawn) [Example 123, 4-(4-tert-butyl-benzoyl)-3-hydroxy-1-(6-methyl-pyridazin-3-yl)-5-(4-trifluoromethoxy-phenyl)-1,5-dihydro-pyrrol-2-one] showed a melting point of 262 to 265 °C. In addition, the negative-log EC50 (pEC50) in the data set on HCV replicon Luc Neo ET is over 6.00. For the same molecule, the negative-log EC50 (pEC50) at HCV NS5B genotype 1b (setting [2]) was over 6.00.

Turning to `Cc1ccc(N2C(=O)C(O)=C(C(=O)c3ccc(C4CCCCC4)cc3)C2c2ccc(OC(F)(F)F)cc2)nn1` (stereo not drawn) [Example 125, 4-(4-cyclohexyl-benzoyl)-3-hydroxy-1-(6-methyl-pyridazin-3-yl)-5-(4-trifluoromethoxy-phenyl)-1,5-dihydro-pyrrol-2-one], the melting point lay within 283 to 286 °C. Also, the pEC50 in the data set on HCV replicon Luc Neo ET was over 5.00. The molecule further showed a pEC50 at HCV NS5B genotype 1b (setting [2]) of over 5.00.

`Cc1cnc(N2C(=O)C(O)=C(C(=O)c3ccc(C(C)C)cc3)C2c2ccc(OC(F)(F)F)cc2)cn1` (stereo not drawn) [Example 128, 3-hydroxy-4-(4-isopropyl-benzoyl)-1-(5-methyl-pyrazin-2-yl)-5-(4-trifluoromethoxy-phenyl)-1,5-dihydro-pyrrol-2-one] gave a melting point of 266 to 268 °C. In the data set with HCV replicon Luc Neo ET, the negative logarithm of the EC50 (pEC50) is over 5.00. The same molecule gave a negative-log EC50 (pEC50) at HCV NS5B genotype 1b (setting [2]) of over 6.00.

For `COc1ccc(N2C(=O)C(O)=C(C(=O)c3ccc(C(C)C)cc3)C2c2ccc(OC(F)(F)F)cc2)nn1` (stereo not drawn) [Example 129, 3-hydroxy-4-(4-isopropyl-benzoyl)-1-(6-methoxy-pyridazin-3-yl)-5-(4-trifluoromethoxy-phenyl)-1,5-dihydro-pyrrol-2-one], the melting point was 271 °C. Also, in the data set with HCV replicon Luc Neo ET, the pEC50 was over 5.00. At HCV NS5B genotype 1b (setting [2]), the pEC50 is over 6.00.

Consider `CC(C)c1ccc(C(=O)C2=C(O)C(=O)N(c3cccn(C)c3=O)C2c2ccc(OC(F)(F)F)cc2)cc1` (stereo not drawn) [Example 130, 3-[3-hydroxy-4-(4-isopropyl-benzoyl)-2-oxo-5-(4-trifluoromethoxy-phenyl)-2,5-dihydro-pyrrol-1-yl]-1-methyl-1H-pyridin-2-one], for which the melting point turned out to be 207 °C. For the same molecule, in the data set with HCV replicon Luc Neo ET, the negative-log EC50 (pEC50) was over 5.00. The pEC50 at HCV NS5B genotype 1b (setting [2]) is over 5.00.

Turning to `Cc1ccc(N2C(=O)C(O)=C(C(=O)c3ccc(CC(C)C)cc3)C2c2ccc(OC(F)(F)F)cc2)nn1` (stereo not drawn) [Example 131, 3-hydroxy-4-(4-isobutyl-benzoyl)-1-(6-methyl-pyridazin-3-yl)-5-(4-trifluoromethoxy-phenyl)-1,5-dihydro-pyrrol-2-one], the melting point came out at 260 °C. The pEC50 in the data set with HCV replicon Luc Neo ET is over 5.00. At HCV NS5B genotype 1b (setting [2]), this molecule showed a pEC50 of over 6.00.

As a reminder, the pEC50 is −log10 of the EC50, conventionally taken in molar units. Usually melting point stands for the temperature, or range, at which the solid turns liquid.

(Values after US20120128630A1, “1-(6 MEMBERS AZO-HETEROCYCLIC)-PYRROLIN-2-ONE COMPOUNDS AS INHIBITORS OF HEPATITIS C NS5B POLYMERASE, THE PHARAMACEUTICAL COMPOSITION THEREOF AND THEIR THERAPEUTIC USE” (priority 2009, published 2012).)
